In paper PMC7450938, “Prenatal to early postnatal neurotrophic treatment prevents Alzheimer-like behavior and pathology in mice” (Alzheimer's Research & Therapy, 2020):

Legend:
[1] = no method and no reference printed for this sentence, next sentence ref 22, cited from earlier work
Protocol: P021 is quite stable in artificial gastric juice (~ 90% during 30 min) and in artificial intestinal juice (> 95% during 120 min).

Aβ plaques = assay: Thioflavin-S-positive plaque load; format: in vivo; details: subiculum, 22-month-old 3xTg-AD mice; 6 sections per mouse, n = 4 mice; P021 diet E8-PND21
Protocol: (§1) We treated 2- to 3-month-old pregnant 3xTg-AD and WT mothers with compound P021 in mouse chow, or with vehicle feed as control at E8 until their offspring/pups reached PND21, at which point the offspring were separated and put on standard mouse chow (Fig. 1). Treatment was administered as 60 nmol peptide/g formulated diet (Research Diets; New Brunswick, NJ, USA). The vehicle-treated control animals received the same diet but without the peptide. On average, each mouse consumed ~ 2.7 g diet/day.
Thioflavin-S–positive (TS+) plaque load was quantified on every 12th section (roughly six sections per set) of four animals from 22-month-old groups. A modified thioflavin-S staining protocol was used as follows. Free-floating brain sections were washed in large volumes of distilled water, incubated in 0.25% KMnO4 for 4–5 min, washed with water, and treated with a solution of 1% K2S2O5 and 1% oxalic acid for 40–60 s until the brown color was completely washed out. Sections were then incubated with 0.05% thioflavin-S in water in the dark for 8 min, followed by differentiation in 80% ethanol twice for 1 min each. […] The images were taken by using a Nikon 90i fluorescent microscope, threshold using ImageJ (v.1.46r), and TS+ plaque load was quantified in the hippocampus CA1 and subiculum areas.

3xTg-AD mice [2] = assay: Morris water maze; format: in vivo, mouse; details: ~4 months
Protocol: Pregnant 3xTg-AD and wild-type (WT) mice were treated with compound P021 in mouse chow, or as control with vehicle feed from gestational day 8 (E8) till their offspring/pups reached PND21, at which point the offspring were separated from their mother and put on normal mouse chow (Fig. 1). There were four study groups of mice, as follows: offspring of WT treated with vehicle diet (WT-Vh, n = 10), offspring of WT treated with […] diet (WT-[…], n = 17), offspring of 3xTg-AD treated with vehicle diet (3xTg-Vh, n = 12), and offspring of 3xTg-AD treated with […] diet (3xTg-[…], n = 18). Elevated plus maze, novel object recognition test, and Morris water maze were carried out consecutively from postnatal day 90 with all of mice. About 50% (4 animals/group) of the female offspring (n = 7-8 animals/group) were sacrificed at 4 months of age and the remaining 50% (3-4 animals/group) at 22 months of age. Left cerebral hemisphere homogenate was used for biochemical analysis and right cerebral hemisphere for immunohistochemical studies. We treated 2- to 3-month-old pregnant 3xTg-AD and WT mothers with compound P021 in mouse chow, or with vehicle feed as control at E8 until their offspring/pups reached PND21, at which point the offspring were separated and put on standard mouse chow (Fig. 1). Treatment was administered as 60 nmol peptide/g formulated diet (Research Diets; New Brunswick, NJ, USA). The vehicle-treated control animals received the same diet but without the peptide. On average, each mouse consumed ~ 2.7 g diet/day. The Morris water maze task was used to evaluate spatial learning and memory of the mice. A total of 57 mice were subjected to the Morris water maze task at about 4 months of age. The test was performed in a circular white pool (with a diameter of 180 cm and a height of 60 cm) filled with nontoxic white dye-tinted water and maintained at room temperature (20 ± 1 °C). The maze was designed with two virtual principal axes, with each line bisecting the maze perpendicular to the other one to divide the maze into four equal quadrants. […]

P-tau (Ser396/404) = assay: PHF-1 immunofluorescence, hippocampal CA1; format: in vivo, mouse; details: hippocampal CA1 region, 22-month-old 3xTg-AD mice; P021 diet E8-PND21; vs 3xTg-Vh
Protocol: as §1
The complete right hemisphere was immersion-fixed in 4% paraformaldehyde in 0.1 M PBS for 24–48 h, followed by cryoprotection in a 30% sucrose solution at 4 °C overnight. Later, the 40-μm-thick sagittal sections were cut on a freezing microtome. […]
Immunofluorescence staining was performed on free-floating sections, and every 12th brain section was chosen for densitometry and quantification. For immunohistochemical quantification, six brain sections of four animals per group were analyzed. All stainings for fluorescence-intensity quantification were carried out under identical conditions, including all tissue samples for a particular staining processed at the same time, and experimental and control sections photographed under identical settings. […]

aged Fisher rats = details: oral administration; cited from earlier work
Source text: (§2) Chronic treatment with P021 ...

3xTg-AD mice [3] = details: chronic treatment, moderate and severe stages of the pathology; cited from earlier work
Source text: as §2

Ac-DGGL^AG-NH2 [P021, 4-mer CNTF small molecule peptide mimetic to which adamantylated glycine was added at the C-terminal]
stability in artificial gastric juice ([1]; during 30 min): ~ 90% | stability in artificial intestinal juice ([1]; during 120 min): > 95% | plaque burden by thioflavin-S staining (Aβ plaques): a significant decrease | escape latency to reach the hidden platform, acquisition phase (3xTg-AD mice [2]; 3xTg-AD offspring, P021 diet E8-PND21, 4 training days, three-way ANOVA treatment P = 0.1088, t test 3xTg-Vh vs 3xTg-P021 P < 0.05): did not prevent it as determined by the three-way ANOVA but showed a clear tendency as determined by the two-tailed t test | latency to first entrance into the target zone, probe trial (3xTg-AD mice [2]; 3xTg-AD offspring, P021 diet E8-PND21, probe 24 h after last training, 3xTg-Vh vs 3xTg-P021 P = 0.0132): decreased the latency significantly | swim speed and cued trial (3xTg-AD mice [2]; among WT-Vh, WT-P021, 3xTg-Vh, 3xTg-P021 groups): no significant difference | PHF-1 immunofluorescence, percent area (P-tau (Ser396/404)): attenuated | cognitive aging (aged Fisher rats): could rescue cognitive aging | tau pathology (3xTg-AD mice [3]): significantly reduced
